Measured values from patent publication US10821100B2, “Triazolone compounds as mPGES-1 inhibitors” (Glenmark Pharmaceuticals S.A., priority 2012, dated 2020).

Biological target: T1, Recombinant human mPGES-1 (Homo sapiens, UniProt O14684)
T1 construct: made in house; host or cells: CHO cells (crude microsomal fractions)
T1 sequence (O14684 1-152): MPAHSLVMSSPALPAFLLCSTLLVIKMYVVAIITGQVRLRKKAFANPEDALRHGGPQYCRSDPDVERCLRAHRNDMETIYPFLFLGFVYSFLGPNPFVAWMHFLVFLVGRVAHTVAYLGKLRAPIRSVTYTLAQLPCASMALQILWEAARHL
Experiment: In-vitro screening of mPGES-1 inhibitors (inhibition of PGE2 formation from PGH2, HTRF detection)
Type: biochemical
Conditions: mPGES-1 enzyme; for inhibition at 1 µM: 1 μM test compound, read-out: Percentage inhibition at 1 μM; for inhibition at 1 µM / inhibition at 10 µM: crude microsomal fractions; for inhibition at 10 µM: 10 μM test compound, read-out: Percentage inhibition at 10 μM; for IC50: class symbols
Method in brief: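 PGH2-to-PGE2 isomerization run for 1 min with 15 μM PGH2 after 10 min compound preincubation with microsomal enzyme (40–60 μg/mL) and 2.5 mM GSH, pH buffer 0.1 M potassium phosphate with EDTA. Stannous chloride quench, HTRF PGE2 readout, IC50 fitted against uninhibited reaction.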

inhibition at 1 µM	inhibition at 10 µM	IC50	Structure (SMILES)
83.9%	87.7%	< 50 nM	O=c1[nH]c(-c2c(F)cccc2Cl)nn1-c1ccc(C#Cc2ccc(Cl)cc2F)cc1 [Example-6, 5-(2-Chloro-6-fluorophenyl)-2-{4-[(4-chloro-2-fluorophenyl)ethynyl]phenyl}-2,4-dihydro-3H-1,2,4-triazol-3-one]
93.3%	92.9%	< 50 nM	CC(C)(C)C(=O)NCc1ccc(Cl)c(-c2nn(-c3ccc(C(F)(F)F)nc3)c(=O)[nH]2)c1 [Example-138, N-(4-Chloro-3-(1-(6-(trifluoromethyl)pyridin-3-yl)-4,5-dihydro-5-oxo-1H-1,2,4-triazol-3-yl)benzyl)pivalamide]
98.5%	99.2%	< 50 nM	CC(C)(C)C(=O)NCc1ccc(Cl)c(-c2nn(-c3cc(F)cc(C(F)(F)F)c3)c(=O)[nH]2)c1 [Example-156, N-(4-Chloro-3-(1-(3-fluoro-5-(trifluoromethyl)phenyl)-4,5-dihydro-5-oxo-1H-1,2,4-triazol-3-yl)benzyl)pivalamide]
99.8%	98.9%	< 50 nM	Cc1ccc(CNC(=O)C(C)C)c(C)c1-c1nn(-c2ccc(C#CC(C)(C)C)c(F)c2)c(=O)[nH]1 [Example-170, N-(3-(1-(3-Fluoro-4-(3,3-dimethylbut-1-ynyl)phenyl)-4,5-dihydro-5-oxo-1H-1,2,4-triazol-3-yl)-2,4-dimethylbenzyl)isobutyramide]
95.2%	99.6%	< 50 nM	COc1cc(-c2nn(-c3c(Cl)cccc3Cl)c(=O)[nH]2)ccc1C#Cc1cc(Cl)ccc1Cl [Example-171, 2-(2,6-Dichlorophenyl)-5-(4-(2-(2,5-dichlorophenyl)ethynyl)-3-methoxyphenyl)-2H-1,2,4-triazol-3 (4H)-one]
84.9%	91.2%	< 50 nM	O=c1[nH]c(-c2c(F)cccc2Cl)nn1-c1ccc(C#Cc2cc(Cl)ccc2Cl)cc1 [Example-10, 5-(2-Chloro-6-fluorophenyl)-2-{4-[(2,5-dichlorophenyl)ethynyl]phenyl}-2,4-dihydro-3H-1,2,4-triazol-3-one]
95.2%	97.3%	50 to 100 nM	COc1cc(-n2nc(-c3c(F)cccc3Cl)[nH]c2=O)ccc1-c1nc2cc(C)c(C)cc2n1C [Example-58, 3-(2-Chloro-6-fluorophenyl)-1-(3-methoxy-4-(1,5,6-trimethyl-1H-benzo[d]imidazol-2-yl)phenyl)-1H-1,2,4-triazol-5(4H)-one]
96.6%	97.3%	< 50 nM	CC(C)(C)C(=O)NCc1ccc(Cl)c(-c2nn(-c3ccc(C(F)(F)F)c(F)c3)c(=O)[nH]2)c1 [Example-160, N-(4-Chloro-3-(1-(3-fluoro-4-(trifluoromethyl)phenyl)-4,5-dihydro-5-oxo-1H-1,2,4-triazol-3-yl)benzyl)pivalamide]
47.2%	95.1%		Cn1ccnc1C(=O)NCc1ccc(Cl)c(-c2nn(-c3ccc(C(F)(F)F)cc3)c(=O)[nH]2)c1 [Example-110, N-(4-Chloro-3-(1-(4-(trifluoromethyl)phenyl)-4,5-dihydro-5-oxo-1H-1,2,4-triazol-3-yl)benzyl)-1-methyl-1H-imidazole-2-carboxamide]
96.8%	98%	< 50 nM	CC(C)(C)C(=O)NCc1cnc(C(F)F)c(-c2nn(-c3ccc(C(F)(F)F)cc3)c(=O)[nH]2)c1 [Example-186]
100%	99.7%	< 50 nM	CC(C)(C)C(=O)NCc1ccc(Cl)c(-n2nc(-c3ccc(C(F)(F)F)c(F)c3)[nH]c2=O)c1 [Example-146, N-(4-Chloro-3-(3-(3-fluoro-4-(trifluoromethyl)phenyl)-4,5-dihydro-5-oxo-1,2,4-triazol-1-yl)benzyl)pivalamide]
41.5%	85.5%		N#Cc1cnc(C(F)F)c(-c2nn(-c3ccc(C(F)(F)F)cc3)c(=O)[nH]2)c1 [Example-183, 6-(Difluoromethyl)-5-(5-oxo-1-(4-(trifluoromethyl)phenyl)-4,5-dihydro-1H-1,2,4-triazol-3-yl)nicotinonitrile]
89.4%	96.8%	< 50 nM	COc1cc(-n2nc(-c3c(F)cccc3Cl)[nH]c2=O)ccc1C(=O)Nc1ccc(F)c(C(F)(F)F)c1 [Example-33, 4-(3-(2-Chloro-6-fluorophenyl)-5-oxo-4,5-dihydro-1H-1,2,4-triazol-1-yl)-N-(4-fluoro-3-(trifluoromethyl)phenyl)-2-methoxybenzamide]
87.8%	98.8%	> 100 nM	COc1cc(-n2nc(-c3cc(CNC(=O)C4CC4)ccc3Cl)[nH]c2=O)ccc1NC(=O)C1CC1 [Example-66, N-(4-Chloro-3-(1-(4-(cyclopropanecarboxamido)-3-methoxyphenyl)-5-oxo-4,5-dihydro-1H-1,2,4-triazol-3-yl)benzyl)cyclopropanecarboxamide]
95.4%	93.1%	< 50 nM	COc1cc(-n2nc(-c3c(F)cccc3Cl)[nH]c2=O)ccc1C#Cc1cccc(Cl)c1F [Example-60, 1-(4-((3-Chloro-2-fluorophenyl)ethynyl)-3-methoxyphenyl)-3-(2-chloro-6-fluorophenyl)-1H-1,2,4-triazol-5(4H)-one]
99.9%	99.9%	< 50 nM	O=C(NCc1ccc(Cl)c(-n2nc(-c3ccc(C#Cc4cc(Cl)ccc4Cl)cc3F)[nH]c2=O)c1)C1CC1 [Example-78]
100%	98.6%	< 50 nM	CC(C)(C)C(=O)NCc1ccc(Cl)c(-c2nn(-c3ccc(C(F)(F)F)cc3)c(=O)[nH]2)c1 [Example-100, N-(4-Chloro-3-(5-oxo-1-(4-(trifluoromethyl)phenyl)-4,5-dihydro-1H-1,2,4-triazol-3-yl)benzyl)pivalamide]
91.5%	93.9%	< 50 nM	CC(C)(CF)C(=O)NCc1cc(-c2nn(-c3ccc(Cl)cc3)c(=O)[nH]2)c(Cl)cc1F [Example-134, N-(4-Chloro-5-(1-(4-chlorophenyl)-4,5-dihydro-5-oxo-1H-1,2,4-triazol-3-yl)-2-fluorobenzyl)-3-fluoro-2,2-dimethylpropanamide]
99.4%	99.4%	< 50 nM	CC(C)(CF)C(=O)NCc1ccc(Cl)c(-c2nn(-c3ccc(C(F)(F)F)cc3)c(=O)[nH]2)c1 [Example-175, N-(4-Chloro-3-(1-(4-(trifluoromethyl)phenyl)-4,5-dihydro-5-oxo-1H-1,2,4-triazol-3-yl)benzyl)-3-fluoro-2,2-dimethylpropanamide]
93.8%	100%	< 50 nM	CC(C)(C)C(=O)NCc1ccc(Cl)c(-c2nn(-c3ccc(Cl)c(F)c3)c(=O)[nH]2)c1 [Example-123, N-(4-Chloro-3-(1-(4-chloro-3-fluorophenyl)-4,5-dihydro-5-oxo-1H-1,2,4-triazol-3-yl)benzyl)pivalamide]
